Results reported in patent US9187472B2 (AbbVie Inc., priority 2012, dated 2015).

What was measured:
[1] = molecular target: NAMPT (human, recombinant, C-terminally His-tagged) (Homo sapiens, UniProt P43490); experiment: Time-Resolved Fluorescence Resonance Energy Transfer (TR-FRET) Binding Assay of NAMPT; settings: without substrates; 6.8 nM NAMPT, 200 nM probe, 3 hours equilibration
In short: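 In a displacement format, the nicotinamide-site tracer at 200 nM competed with test compound for 6.8 nM enzyme detected via 1 nM terbium anti-His antibody; incubation lasted 3 hours at room temperature in 50 mM HEPES pH 7.5, 100 mM NaCl. Normalized 520/495 nm emission ratios gave IC50 values.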

NAMPT = NAMPT (Homo sapiens, UniProt P43490); experiment: TR-FRET Binding Assay of NAMPT with PRPP; settings: with 200 μM PRPP and 2.5 mM ATP; 2 nM NAMPT, 2 nM probe, 16 hours equilibration
Sequence of NAMPT (P43490 whole entry): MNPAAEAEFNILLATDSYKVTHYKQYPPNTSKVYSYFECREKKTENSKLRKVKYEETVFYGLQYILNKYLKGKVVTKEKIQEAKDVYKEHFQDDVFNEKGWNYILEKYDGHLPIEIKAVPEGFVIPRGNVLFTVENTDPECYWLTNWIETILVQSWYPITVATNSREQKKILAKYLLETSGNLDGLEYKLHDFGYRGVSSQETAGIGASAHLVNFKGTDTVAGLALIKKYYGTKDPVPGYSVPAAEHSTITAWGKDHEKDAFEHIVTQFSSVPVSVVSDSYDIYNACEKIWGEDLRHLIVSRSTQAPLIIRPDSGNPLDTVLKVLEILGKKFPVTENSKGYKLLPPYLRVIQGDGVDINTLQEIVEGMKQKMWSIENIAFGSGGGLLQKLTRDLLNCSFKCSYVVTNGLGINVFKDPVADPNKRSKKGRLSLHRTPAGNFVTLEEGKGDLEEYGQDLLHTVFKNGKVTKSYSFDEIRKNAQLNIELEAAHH
In short: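 Substrate-containing variant: 200 μM PRPP plus 2.5 mM ATP are added to 2 nM NAMPT and 2 nM probe, with a 16-hour incubation ahead of TR-FRET reading.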

PC3 cells = experiment: NAMPT Cell Proliferation Assay; type: cell-based; settings: Homo sapiens, PC-3, 120 h, 5 days incubation, cell viability by Cell Titer Glo
In short: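 Cell Titer Glo viability after 5-day exposure (37° C, 5% CO2); PC3, 500 cells/well, RPMI + 10% heat-inactivated FBS, overnight attachment before dosing. Dose range 10 μM to 1×10^−5 μM, 10-fold steps. IC50 = sigmoidal fit of % inhibition.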

Sequence of NAMPT (human, recombinant, C-terminally His-tagged) (P43490 whole entry): as above

Row | IC50 [1] [nM] | IC50 (NAMPT) [nM] | IC50 (PC3 cells) [nM] | SMILES
1 | 508 | 0.714 | 146 | CC(C)(C)OC(=O)N1CC=C(c2ccc(NC(=O)Nc3ccc4nccn4c3)cc2)CC1 [Example 25, tert-butyl 4-{4-[(imidazo[1,2-a]pyridin-6-ylcarbamoyl)amino]phenyl}-3,6-dihydropyridine-1(2H)-carboxylate]
2 | 5.43 | 0.407 | 6.55 | O=C(NCc1ccn2ccnc2c1)c1ccc(C2(O)CCN(C(=O)c3ccccc3)CC2)s1 [Example 556, 5-(1-benzoyl-4-hydroxypiperidin-4-yl)-N-(imidazo[1,2-a]pyridin-7-ylmethyl)thiophene-2-carboxamide]
3 | 364 | 0.705 | 85.9 | O=C(NCc1ccn2ccnc2c1)c1ccc(-c2cnn(CC(F)(F)F)c2)o1 [Example 738, N-(imidazo[1,2-a]pyridin-7-ylmethyl)-5-[1-(2,2,2-trifluoroethyl)-1H-pyrazol-4-yl]furan-2-carboxamide]
4 | 24.2 | 2.86 | 742 | CC(C)Cn1cc(-c2ccc(C(=O)NCc3ccn4ncnc4c3)s2)cn1 [Example 497, 5-[1-(2-methylpropyl)-1H-pyrazol-4-yl]-N-([1,2,4]triazolo[1,5-a]pyridin-7-ylmethyl)thiophene-2-carboxamide]
5 | 109 | 0.333 | 4.55 | O=C(NCc1ccc2nccn2c1)c1ccc(C2=CCN(C(=O)CC3CCCC3)CC2)cc1 [Example 97, 4-[1-(cyclopentylacetyl)-1,2,3,6-tetrahydropyridin-4-yl]-N-(imidazo[1,2-a]pyridin-6-ylmethyl)benzamide]
6 | 65.7 | 0.347 | 2.36 | O=C(NCc1ccc2nccn2c1)c1ccc(-c2cnn(CC3CCCCO3)c2)s1 (stereo not drawn) [Example 186, N-(imidazo[1,2-a]pyridin-6-ylmethyl)-5-[1-(tetrahydro-2H-pyran-2-ylmethyl)-1H-pyrazol-4-yl]thiophene-2-carboxamide]
7 | 144 | 0.169 | 21.9 | CC(C)C(=O)N1CC=C(c2ccc(NC(=O)NCc3ccn4ccnc4c3)c(F)c2)CC1 [Example 306, 1-{2-fluoro-4-[1-(2-methylpropanoyl)-1,2,3,6-tetrahydropyridin-4-yl]phenyl}-3-(imidazo[1,2-a]pyridin-7-ylmethyl)urea]
8 | 68.4 | 1.03 | 3.25 | O=C(NCc1ccn2ccnc2c1)c1ccc(C2CCN(C(=O)c3c(F)cccc3F)CC2)cc1 [Example 700, 4-[1-(2,6-difluorobenzoyl)piperidin-4-yl]-N-(imidazo[1,2-a]pyridin-7-ylmethyl)benzamide]
9 | 8.61 | 1.49 | 9.58 | O=C(CC1CCCC1)Nc1ccc(NC(=O)NCc2ccc3nccn3c2)cc1 [Example 60, 2-cyclopentyl-N-(4-{[(imidazo[1,2-a]pyridin-6-ylmethyl)carbamoyl]amino}phenyl)acetamide]
10 | 1480 | 0.383 | 386 | CC(C)C(=O)N1CCC(c2ncc(C(=O)NCc3ccn4ccnc4c3)s2)CC1 [Example 543, N-(imidazo[1,2-a]pyridin-7-ylmethyl)-2-[1-(2-methylpropanoyl)piperidin-4-yl]-1,3-thiazole-5-carboxamide]
11 | 1400 | 0.232 | 175 | CC(C)(C)OC(=O)N1CCC(c2ccc(C(=O)Nc3ccc4nccn4c3)cc2)CC1 [Example 323, tert-butyl 4-[4-(imidazo[1,2-a]pyridin-6-ylcarbamoyl)phenyl]piperidine-1-carboxylate]
12 | 497 | 0.205 | 533 | O=C(NCc1ccn2ccnc2c1)Nc1ccc(O[C@@H]2CCN(C(=O)C3CCOC3)C2)cc1 (stereo partly drawn) [Example 337, 1-(imidazo[1,2-a]pyridin-7-ylmethyl)-3-(4-{[(3R)-1-(tetrahydrofuran-3-ylcarbonyl)pyrrolidin-3-yl]oxy}phenyl)urea]
13 | 334 | 0.264 | 139 | O=C(NCc1ccn2ccnc2c1)Nc1ccc(O[C@@H]2CCN(C(=O)[C@@H]3CCCO3)C2)cc1 [Example 336, 1-(imidazo[1,2-a]pyridin-7-ylmethyl)-3-[4-({(3R)-1-[(2S)-tetrahydrofuran-2-ylcarbonyl]pyrrolidin-3-yl}oxy)phenyl]urea]
14 | 222 | 0.695 | 143 | CC(C)CCNC(=O)c1ccc(NC(=O)NCc2ccc3nccn3c2)cc1 [Example 59, 4-{[(imidazo[1,2-a]pyridin-6-ylmethyl)carbamoyl]amino}-N-(3-methylbutyl)benzamide]
15 | 84.1 | 0.937 | 6.54 | O=C(NCc1ccn2ccnc2c1)c1ccc(C2CCN(C(=O)c3ccccc3OC(F)(F)F)CC2)cc1 [Example 706, N-(imidazo[1,2-a]pyridin-7-ylmethyl)-4-{1-[2-(trifluoromethoxy)benzoyl]piperidin-4-yl}benzamide]
16 | 41.1 | 0.721 | 5.27 | O=C(NCc1ccn2ccnc2c1)c1ccc(C2CCN(C(=O)c3ccccc3Cl)CC2)cc1 [Example 699, 4-[1-(2-chlorobenzoyl)piperidin-4-yl]-N-(imidazo[1,2-a]pyridin-7-ylmethyl)benzamide]
17 | 24.7 | 0.169 | 2.46 | Cc1ccsc1C(=O)N1CCC(c2ccc(C(=O)NCc3ccn4ccnc4c3)cc2)CC1 [Example 524, N-(imidazo[1,2-a]pyridin-7-ylmethyl)-4-{1-[(3-methylthiophen-2-yl)carbonyl]piperidin-4-yl}benzamide]
18 | 3920 | 1.12 | 7820 | CC(C)C(=O)N1CCC(c2ncc(C(=O)NCc3ccn4ccnc4c3)s2)C1 (stereo not drawn) [Example 805, N-(imidazo[1,2-a]pyridin-7-ylmethyl)-2-[1-(2-methylpropanoyl)pyrrolidin-3-yl]-1,3-thiazole-5-carboxamide]
19 | 283 | 0.254 | 42.4 | O=C(NCc1ccn2ccnc2c1)Nc1ccc(C2CCN(C(=O)[C@H]3CCCO3)C2)cc1 (stereo partly drawn) [Example 386, 1-(imidazo[1,2-a]pyridin-7-ylmethyl)-3-(4-{1-[(2R)-tetrahydrofuran-2-ylcarbonyl]pyrrolidin-3-yl}phenyl)urea]
20 | 264 | 0.524 | 83 | CC(C)Cn1cc(-c2ccc(NC(=O)Nc3ccc4nccn4c3)cc2)cn1 [Example 51, 1-imidazo[1,2-a]pyridin-6-yl-3-{4-[1-(2-methylpropyl)-1H-pyrazol-4-yl]phenyl}urea]
21 | > 10000 | 0.169 | 1020 | CC(C)N1CCN(c2ncc(C(=O)NCc3ccn4ccnc4c3)s2)CC1 [Example 356, N-(imidazo[1,2-a]pyridin-7-ylmethyl)-2-[4-(propan-2-yl)piperazin-1-yl]-1,3-thiazole-5-carboxamide]
22 | 112 | 0.192 | 4.08 | O=C(NCc1ccn2ccnc2c1)Nc1ccc(C2CCN(C(=O)C3COCCO3)CC2)cc1 (stereo not drawn) [Example 222, 1-{4-[1-(1,4-dioxan-2-ylcarbonyl)piperidin-4-yl]phenyl}-3-(imidazo[1,2-a]pyridin-7-ylmethyl)urea]
23 | 1250 | 1.36 | 74 | CC(C)C[C@@H](NC(=O)C1CC1)c1ccc(C(=O)NCc2ccn3ccnc3c2)s1 [Example 685, 5-{(1R)-1-[(cyclopropylcarbonyl)amino]-3-methylbutyl}-N-(imidazo[1,2-a]pyridin-7-ylmethyl)thiophene-2-carboxamide]
24 | 2040 | 11.9 | 5720 | O=C(NCc1ccc2nccn2c1)c1cnc(N2CCC(c3ccccc3)C2)s1 (stereo not drawn) [Example 86, N-(imidazo[1,2-a]pyridin-6-ylmethyl)-2-(3-phenylpyrrolidin-1-yl)-1,3-thiazole-5-carboxamide]
25 | 754 | 0.348 | 66.7 | O=C(NCCCCC1CCN(C(=O)CN2CCOCC2)CC1)Nc1ccc2nccn2c1 [Example 71, 1-imidazo[1,2-a]pyridin-6-yl-3-{4-[1-(morpholin-4-ylacetyl)piperidin-4-yl]butyl}urea]
26 | 1410 | 0.352 | 1170 | CC(C)C(=O)N1CC(Oc2ccc(C(=O)NCc3ccn4ccnc4c3)cc2)C1 [Example 558, N-(imidazo[1,2-a]pyridin-7-ylmethyl)-4-{[1-(2-methylpropanoyl)azetidin-3-yl]oxy}benzamide]
27 | 210 | 0.792 | 73.6 | O=C(CC1CCOC1)Nc1ccc(C(=O)NCc2ccc3ncc(Cl)n3c2)cc1 (stereo not drawn) [Example 398, N-[(3-chloroimidazo[1,2-a]pyridin-6-yl)methyl]-4-[(tetrahydrofuran-3-ylacetyl)amino]benzamide]
28 | 584 | 0.266 | 9.12 | CC[C@@H](O)Cn1cc(-c2ccc(C(=O)NCc3ccc4nccn4c3)s2)cn1 [Example 180, 5-{1-[(2R)-2-hydroxybutyl]-1H-pyrazol-4-yl}-N-(imidazo[1,2-a]pyridin-6-ylmethyl)thiophene-2-carboxamide]
